Measured values: patent publication EP0688331B1, “NEW SULFATED LYSO-GANGLIOSIDE DERIVATIVES” (FIDIA S.p.A., priority 1993, dated 1994)
Like-named read-outs stand apart in the source and are kept apart here.

Legend:
[1] = system: Mouse neuroblastoma cells C1300, Neuro-2A clone; test: Neuritogenic activity (% of neurite-bearing cells under the optical microscope); type: cell-based; settings: for EC50: neuroblastoma cells N2A, % of neurite-bearing cells, read-out: ED50 (µM) neuritogenic effect
Description: Mouse neuroblastoma cells C1300, Neuro-2A clone (obtained from American Cell Type Culture Collection - Bethesda, Md) have been seeded at a density of 10,000 cells/well (24-Falcon) in tissue culture medium containing Dulbecco's modified Eagle medium (DMEM, Gibco), 10% fetal calf serum heat inactivated (FCS, lot 7201 Seromed), penicillin (100 units per ml, Irvine) and L-glutamine (2 mM, Sigma). Cells have been incubated at 37° C for 24 hr, then the medium was withdrawn and substituted with 350 µl of fresh culture medium with and without the compounds to be tested.
The derivatives have been solubilized in chloroform/methanol (2/1) and then dried under a flow of nitrogen.
For the different compounds, consecutive dilutions in tissue culture medium (concentrations from 50 µM to 5 µM) were performed.
Culture dishes incubated with the tested compounds were analyzed under a phase contrast microscope (250x) : 9 optical fields were chosen with prefixed coordinates and photographed. Then, the total number of cells were counted, as well as the number of neurite-bearing cells (length at least double of the cell diameter) in blind on every picture. The percentage of neurite-bearing cells was determined following the counting of at least 100 cells, and the data were expressed by the respective ED50 (µM) (Facci L. et al.: Promotion of neuritogenesis in mouse neuroblastoma cells by exogenous ganglioside GM1. J. Neurochem. 229-305, 1984).

cerebellar granule cells [2] = settings: read-out: ED50 (antineurotoxic activity); 2 hrs pretreatment, then 100 µM glutamate 60 minutes; MTT after 24 hr
Description: Primary cultures of cerebellar granule cells have been prepared from 8-day-old Sprague-Dawley rats.
Neurons have been grown in 35 mm dishes for 11-13 days and kept in a humidified environment (95% air and 5% CO2) at 37° C. […] Glial proliferation was prevented by cytosine arabinofuranoside.
Concentrations from 100 µM to 5 µM have been tested.
The cell culture medium was aspirated from the dishes (and properly stored). The dishes were washed (3x2 ml) with Locke's solution, then the solutions (1.5 ml) containing the compound to be tested were added, and incubated for 2 hrs in incubator at 37° C (5% CO2).
The treated cells were washed (3x2 ml) with Locke's solution + 10% fetal calf serum heat inactivated (without glutamic acid), then washed (3x2 ml) in Locke's solution in the absence of Mg^2+. […]
At the end of the incubation the cell viability measured by using the MTT colorimetric test was evaluated (Mosmann T., Rapid colorimetric assay for cellular growth and survival: application to proliferation and cytotoxicity assays. J. Immunol. Meth. 65, 55-63, 1983 and modified according to Skaper S.D. et al.: Death of cultured hippocampal pyramidal neurons induced by pathological activation of N-methyl-Daspartate receptors is reduced by monosialogangliosides. J. Pharm. and Exp. Ther. 259, 1, 452-457, 1991). The data are expressed as ED50 (µM).

CD4 = target: T1, CD4 (Homo sapiens, UniProt P01730); test: Expression of the CD4 molecule in Molt 3 cells (flow cytofluorimetry with anti-CD4 mAb); type: cell-based; settings: 60 minutes at 37° C
T1 construct: 100% of Molt 3 cells express CD4; host or cells: Molt 3 cells (human acute lymphoblastic leukemia T-cell line)
Description: Molt 3 cells (American Type Culture Collection - Rockville, MD, USA) have been utilized, human tumoral cell lines derived from an acute lymphoblastic leukemia and formed by T lymphocytes expressing CD4 on their surface. Such a cell line was chosen due to the fact that it overlaps, as regards the expression of the CD4 molecule, human T lymphocytes obtained from peripheral blood. 100% of Molt 3 cells express CD4, whereas only part of human T lymphocytes from peripheral blood express CD4 in a proportion varying from subject to subject. The Molt 3 model has therefore the advantage of allowing a better experimental reliability.
Molt 3 cells (1x10^6) have been incubated with different concentrations of Liga 179 (from 1 µg/ml to 500 µg/ml) for 60 minutes at 37° C in buffered saline (PBS), with or without Fetal Calf Serum (FCS). When utilized, FCS was added at a concentration of 5 or 10 part/percentage (vol/vol). Following the incubation and the subsequent washing the percentage of cells expressing CD4 has been measured by flow cytofluorimetry using a monoclonal, fluoresceinated (mAb), specific for CD4 (DAKO T4, Dakopatts, Glostrup, Denmark) and a cytofluorimeter (EPICS V, Coulter Electronics, Hialeah, Florida, USA). In Table 4 are reported the data concerning the percentage of Molt 3 cells that express CD4, following the incubation with the compound under examination at the different concentrations utilized.

cerebellar granule cells [3] = settings: read-out: ED50 (antineurotoxic activity); co-treatment with 100 µM glutamate, 30 minutes; MTT after 24 hours
Description: Thus, dilutions have been performed at different concentrations in Locke's solution (154 mM NaCl, 5.6 mM KCl, 3.6 mM NaHCO3, 2.3 mM CaCl2, 5.6 mM glucose, 4.6 mM Hepes, pH 7.4). Concentrations from 100 µM to 5 µM have been tested.
The cell culture medium was aspirated from the dishes (and properly stored). The dishes were washed (3x2 ml) with Locke's solution in the absence of Mg^2+. Then, 1.5 ml of Locke's solution (-Mg^2+) with or without 100 µM glutamate and with or without the compound to be tested were added. The incubation period lasted 30 minutes (37° C). Glutamate and the compound to be tested were then removed. The dishes were washed with Locke's solution in the presence of Mg^2+ (2x2 ml) and then incubated in the presence of the initial medium (properly stored) for 24 hours at 37° C in an incubator (5% CO2).
At the end of the incubation cell viability measured by means of the MTT colorimetric test was evaluated (Mosmann T.: Rapid colorimetric assay for cellular growth and survival: application to proliferation and cytotoxicity assays. J Immunol. Meth. 65, 55-63, 1983 and modified according to Skaper S.D. et al.: Death of cultured hippocampal pyramidal neurons induced by pathological activation of N-methyl-D-aspartate receptors is reduced by monosialogangliosides. J. Pharm. and Exp. Ther. 259,1, 452-457, 1991). Data were expressed as ED50 (µM).

| Substance | % of neurite-bearing cells ([1]; dose of 25 µM) | EC50 [1] | EC50 (cerebellar granule cells [2]) | % MOLT-3 cells expressing CD4 on the surface (CD4; 10 µg/ml, FCS 0 %, without compound 96.9) | % MOLT-3 cells expressing CD4 on the surface (CD4; 50 µg/ml, FCS 0 %, without compound 96.9) | % MOLT-3 cells expressing CD4 on the surface (CD4; 100 µg/ml, FCS 0 %, without compound 96.9) | % MOLT-3 cells expressing CD4 on the surface (CD4; 100 µg/ml, FCS 5 %, without compound 98.6) | % MOLT-3 cells expressing CD4 on the surface (CD4; 100 µg/ml, FCS 10 %, without compound 96.9) | % MOLT-3 cells expressing CD4 on the surface (CD4; 200 µg/ml, FCS 5 %, without compound 98.6) | % MOLT-3 cells expressing CD4 on the surface (CD4; 200 µg/ml, FCS 10 %, without compound 96.9) | % MOLT-3 cells expressing CD4 on the surface (CD4; 500 µg/ml, FCS 5 %, without compound 98.6) | % MOLT-3 cells expressing CD4 on the surface (CD4; 500 µg/ml, FCS 10 %, without compound 96.9) | EC50 (cerebellar granule cells [3]) |
| --- | --- | --- | --- | --- | --- | --- | --- | --- | --- | --- | --- | --- | --- |
| N-4-CHLOROBENZENESULFONYL-LYSOGM1 [Liga 123] | about 48% | 12 µM | 6 µM |  |  |  |  |  |  |  |  |  |  |
| N-BENZENESULFONYL-LYSO GM1 [Liga 125] |  | 25 µM |  |  |  |  |  |  |  |  |  |  |  |
| O-SULFATED N'SULFO-N'-LYSO-GM1 [Liga 179] |  |  |  | 0% | 0% | 0% | 15.5% | 86.5% | 0% | 14.6% | 0% | 0% | 15 µM |
